Reference: ChEMBL document CHEMBL4138146, “A Schmidt rearrangement-mediated synthesis of novel tetrahydro-benzo[1,4]diazepin-5-ones as potential anticancer and antiprotozoal agents” (Eur J Med Chem, 2017)
Converted amounts (≈) assume the structure as drawn.

Tests used:
UACC-257 = assay: Growth inhibition of human UACC257 cells assessed as cell growth at 10 uM incubated for 48 hrs by sulforhodamine B assay relative to control; format: functional; conditions: UACC-257, 48 h, read-out: Activity
Leishmania panamensis = assay: Antileishmanial activity against EpiR/GFP fused Leishmania panamensis MHOM/CO/87/UA140 intracellular amastigotes infected in human […] cells after 72 hrs by flow cytometric method; format: functional, organism-based; conditions: MHOM/CO/87/UA140, 72 h
HCT-116 = assay: Growth inhibition of human HCT116 cells assessed as cell growth at 10 uM incubated for 48 hrs by sulforhodamine B assay relative to control; format: functional; conditions: HCT-116, 48 h, read-out: Activity
Trypanosoma cruzi = assay: Antitrypanosomal activity against Trypanosoma cruzi Tulahuen amastigote forms infected in human U937 cells after 72 hrs by beta-galactosidase reporter gene assay; format: functional, organism-based; conditions: U-937, 72 h
OVCAR-3 = assay: Growth inhibition of human OVCAR3 cells assessed as cell growth at 10 uM incubated for 48 hrs by sulforhodamine B assay relative to control; format: functional; conditions: OVCAR-3, 48 h, read-out: Activity
KM12 = assay: Growth inhibition of human KM12 cells assessed as cell growth at 10 uM incubated for 48 hrs by sulforhodamine B assay relative to control; format: functional; conditions: KM12, 48 h, read-out: Activity
T47D = assay: Growth inhibition of human T47D cells assessed as cell growth at 10 uM incubated for 48 hrs by sulforhodamine B assay relative to control; format: functional; conditions: read-out: Activity
SF-268 = assay: Growth inhibition of human SF268 cells assessed as cell growth at 10 uM incubated for 48 hrs by sulforhodamine B assay relative to control; format: functional; conditions: SF-268, 48 h, read-out: Activity
SNB-19 = assay: Growth inhibition of human SNB19 cells assessed as cell growth at 10 uM incubated for 48 hrs by sulforhodamine B assay relative to control; format: functional; conditions: SNB-19, 48 h, read-out: Activity
SF-295 = assay: Growth inhibition of human SF295 cells assessed as cell growth at 10 uM incubated for 48 hrs by sulforhodamine B assay relative to control; format: functional; conditions: SF-295, 48 h, read-out: Activity
HL-60(TB) = assay: Growth inhibition of human HL-60(TB) cells assessed as cell growth at 10 uM incubated for 48 hrs by sulforhodamine B assay relative to control; format: functional; conditions: HL-60, 48 h, read-out: Activity
U-251 = assay: Growth inhibition of human U251 cells assessed as cell growth at 10 uM incubated for 48 hrs by sulforhodamine B assay relative to control; format: functional; conditions: U-251, 48 h, read-out: Activity
IGROV-1 = assay: Growth inhibition of human IGROV1 cells assessed as cell growth at 10 uM incubated for 48 hrs by sulforhodamine B assay relative to control; format: functional; conditions: IGROV-1, 48 h, read-out: Activity
K562 [1] = assay: Growth inhibition of human K562 cells assessed as cell growth at 10 uM incubated for 48 hrs by sulforhodamine B assay relative to control; format: functional; conditions: K562, 48 h, read-out: Activity
MDA-MB-231 = assay: Growth inhibition of human MDA-MB-231 cells assessed as cell growth at 10 uM incubated for 48 hrs by sulforhodamine B assay relative to control; format: functional; conditions: MDA-MB-231, 48 h, read-out: Activity
SR = assay: Growth inhibition of human SR cells assessed as cell growth at 10 uM incubated for 48 hrs by sulforhodamine B assay relative to control; format: functional; conditions: read-out: Activity
Plasmodium falciparum = assay: Antimalarial activity against chloroquine-sensitive Plasmodium falciparum 3D7 incubated for 48 hrs by malstat reagent based LDH release assay; format: functional, organism-based; conditions: 3D7, 48 h
786-0 = assay: Growth inhibition of human 786-0 cells assessed as cell growth at 10 uM incubated for 48 hrs by sulforhodamine B assay relative to control; format: functional; conditions: 786-0, 48 h, read-out: Activity
SK-MEL-5 = assay: Growth inhibition of human SK-MEL-5 cells assessed as cell growth at 10 uM incubated for 48 hrs by sulforhodamine B assay relative to control; format: functional; conditions: SK-MEL-5, 48 h, read-out: Activity
HCT-15 = assay: Growth inhibition of human HCT15 cells assessed as cell growth at 10 uM incubated for 48 hrs by sulforhodamine B assay relative to control; format: functional; conditions: HCT-15, 48 h, read-out: Activity
SW-620 = assay: Growth inhibition of human SW620 cells assessed as cell growth at 10 uM incubated for 48 hrs by sulforhodamine B assay relative to control; format: functional; conditions: SW-620, 48 h, read-out: Activity
NCI-H23 = assay: Growth inhibition of human NCI-H23 cells assessed as cell growth at 10 uM incubated for 48 hrs by sulforhodamine B assay relative to control; format: functional; conditions: NCI-H23, 48 h, read-out: Activity
MDA-MB-435 = assay: Growth inhibition of human MDA-MB-435 cells assessed as cell growth at 10 uM incubated for 48 hrs by sulforhodamine B assay relative to control; format: functional; conditions: MDA-MB-435, 48 h, read-out: Activity
Hs-578T = assay: Growth inhibition of human Hs 578T cells assessed as cell growth at 10 uM incubated for 48 hrs by sulforhodamine B assay relative to control; format: functional; conditions: read-out: Activity
EKVX = assay: Growth inhibition of human EKVX cells assessed as cell growth at 10 uM incubated for 48 hrs by sulforhodamine B assay relative to control; format: functional; conditions: read-out: Activity
M14 = assay: Growth inhibition of human M14 cells assessed as cell growth at 10 uM incubated for 48 hrs by sulforhodamine B assay relative to control; format: functional; conditions: M14, 48 h, read-out: Activity
HCC 2998 = assay: Growth inhibition of human HCC2998 cells assessed as cell growth at 10 uM incubated for 48 hrs by sulforhodamine B assay relative to control; format: functional; conditions: HCC 2998, 48 h, read-out: Activity
UACC-62 = assay: Growth inhibition of human UACC62 cells assessed as cell growth at 10 uM incubated for 48 hrs by sulforhodamine B assay relative to control; format: functional; conditions: UACC-62, 48 h, read-out: Activity
U-937 = assay: Cytotoxicity against human U937 cells after 72 hrs by MTT assay; format: functional; conditions: U-937, 72 h, read-out: LC50 (the source's name)
MCF7 = assay: Growth inhibition of human MCF7 cells assessed as cell growth at 10 uM incubated for 48 hrs by sulforhodamine B assay relative to control; format: functional; conditions: MCF7, 48 h, read-out: Activity
K562 [2] = assay: Growth inhibition of human K562 cells incubated for 48 hrs by sulforhodamine B assay; format: functional; conditions: K562, 48 h
NCI-H460 = assay: Growth inhibition of human NCI-H460 cells incubated for 48 hrs by sulforhodamine B assay; format: functional; conditions: NCI-H460, 48 h
ACHN = assay: Growth inhibition of human ACHN cells incubated for 48 hrs by sulforhodamine B assay; format: functional

Work on `O=C1NCC(c2cc3ccc(Cl)cc3[nH]c2=O)Nc2ccccc21` (stereo not given) yielded a growth at 10 µM (UACC-257) of 78.4%, an EC50 (Leishmania panamensis) of 77.9 µg/mL (≈ 229 µM) and a growth at 10 µM (HCT-116) of 87.8%. The EC50 (Trypanosoma cruzi) was 86 µg/mL (≈ 253 µM), the growth at 10 µM (OVCAR-3) was 109% and the growth at 10 µM (KM12) was 103%. The growth at 10 µM (T47D) was 66.5%, the growth at 10 µM (SF-268) was 106% and the growth at 10 µM (SNB-19) was 108%. For the same compound, the growth at 10 µM (SF-295) was 107%, the growth at 10 µM (HL-60(TB)) was 111% and the growth at 10 µM (U-251) was 88.9%. For the same compound, the growth at 10 µM (IGROV-1) was 96.5%, the growth at 10 µM (K562 [1]) was 124% and the growth at 10 µM (MDA-MB-231) was 118%. For the same compound, the growth at 10 µM (SR) was 115%, the EC50 (Plasmodium falciparum) was 59.3 µg/mL (≈ 175 µM) and the growth at 10 µM (786-0) was 99.7%. It also gave a growth at 10 µM (SK-MEL-5) of 102%, a growth at 10 µM (HCT-15) of 103% and a growth at 10 µM (SW-620) of 107%. For the same compound, the growth at 10 µM (NCI-H23) was 94%, the growth at 10 µM (MDA-MB-435) was 104% and the growth at 10 µM (Hs-578T) was 113%. The growth at 10 µM (EKVX) was 95.2%, the growth at 10 µM (M14) was 96.8% and the growth at 10 µM (HCC 2998) was 105%. The growth at 10 µM (UACC-62) was 106%, the CC50 (U-937) was over 200 µg/mL and the growth at 10 µM (MCF7) was 97.4%.

`CCCCOc1nc2ccccc2cc1C1CNC(=O)c2ccccc2N1` (stereo not given) showed a growth at 10 µM (UACC-257) of 57.2%, a growth at 10 µM (HCT-116) of 15.6% and a growth at 10 µM (OVCAR-3) of -9.73%. The growth at 10 µM (KM12) was 23.9%, the GI50 (K562 [2]) was 0.84 µM and the LC50 (K562 [2]) was over 100 µM. It also gave a TGI (K562 [2]) of 16.4 µM, a growth at 10 µM (T47D) of 20.9% and a growth at 10 µM (SF-268) of 43.6%. For the same compound, the growth at 10 µM (SNB-19) was 33.4%, the growth at 10 µM (SF-295) was -5.68% and the growth at 10 µM (HL-60(TB)) was -8.72%. The growth at 10 µM (U-251) was 18.6%, the growth at 10 µM (IGROV-1) was 38% and the growth at 10 µM (K562 [1]) was 12.8%. For the same compound, the growth at 10 µM (MDA-MB-231) was 47.5%, the growth at 10 µM (SR) was 19.8% and the growth at 10 µM (786-0) was 26.2%. The growth at 10 µM (SK-MEL-5) was 15.6%, the growth at 10 µM (HCT-15) was 15.3% and the growth at 10 µM (SW-620) was 20.9%. For the same compound, the growth at 10 µM (NCI-H23) was 23.8%, the growth at 10 µM (MDA-MB-435) was -63.8% and the growth at 10 µM (Hs-578T) was 34.1%. It also gave a growth at 10 µM (EKVX) of 33%, a growth at 10 µM (M14) of -23.1% and a growth at 10 µM (HCC 2998) of 56.5%. The GI50 (NCI-H460) was 3.11 µM, the LC50 (concentration killing 50% of cells) (NCI-H460) was 51.1 µM and the TGI (NCI-H460) was 11.6 µM. It also gave a growth at 10 µM (UACC-62) of 32.6%, a growth at 10 µM (MCF7) of 21.2% and a GI50 (ACHN) of 3.92 µM. It also gave a TGI (ACHN) of 17.1 µM and a CC50 (ACHN; read-out: LC50 (the source's name)) of 5.95 µM.
